The target in data set [1] is T1, OATP1B1 (Homo sapiens, UniProt Q9Y6L6).
T1 construct: expressed in transfected cells; host or cells: HEK293 (recombinant baculovirus-mediated transduction)
T1 sequence (Q9Y6L6 1-691): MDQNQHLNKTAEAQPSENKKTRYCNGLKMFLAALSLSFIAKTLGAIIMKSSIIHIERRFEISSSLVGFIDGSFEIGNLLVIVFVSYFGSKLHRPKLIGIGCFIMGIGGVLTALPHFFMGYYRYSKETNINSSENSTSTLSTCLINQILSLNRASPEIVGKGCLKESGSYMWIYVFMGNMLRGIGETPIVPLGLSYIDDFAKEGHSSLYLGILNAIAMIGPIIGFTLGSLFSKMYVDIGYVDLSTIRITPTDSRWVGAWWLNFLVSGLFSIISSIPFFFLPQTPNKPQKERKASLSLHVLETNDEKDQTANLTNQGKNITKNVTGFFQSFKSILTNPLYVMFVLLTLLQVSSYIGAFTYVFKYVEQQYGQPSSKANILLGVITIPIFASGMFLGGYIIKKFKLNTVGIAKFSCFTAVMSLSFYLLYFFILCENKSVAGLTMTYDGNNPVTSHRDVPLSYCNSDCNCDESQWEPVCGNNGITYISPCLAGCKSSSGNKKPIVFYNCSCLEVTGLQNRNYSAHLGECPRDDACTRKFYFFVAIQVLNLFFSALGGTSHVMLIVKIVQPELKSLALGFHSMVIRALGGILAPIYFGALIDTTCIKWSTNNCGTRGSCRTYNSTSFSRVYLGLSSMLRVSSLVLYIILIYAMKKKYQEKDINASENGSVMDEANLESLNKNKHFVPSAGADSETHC
Description: Determination of inhibition constant Ki for OATP1B1, rosuvastatin. The class given is cell-based. The settings on record: rosuvastatin 1-80 µM, 30 min preincubation, 2 min; read-out: Ki-value for the competitive inhibition of OATP1B1. As to the method: were removed and 300 µl of warm TP-buffer was added to each well and incubated for 5 min.
The washing was repeated twice , after which the transport assays were conducted in the presence of 1 µM 2′,7′ -dichlorofluorescein for 5 min. The wells that were pre -incubated with […]
incubated with the vehicle contained three different inhibitor concentrations. After the transport assays, the samples were treated and analyzed similarly as described in the main text and above. The uptake into vehicle control samples w as set to a value of 100% and all the inhibitor samples are presented relative to the vehicle control samples. […]
determined in a single experiment in triplicate samples by using 1 µM, 4 µM and 20 µM […]
µM, 2.5 µM, 10 µM, 20 µM, 40 µM and 80 µM). The assays included a 30 min preincubation step with the inhibitor , and the transport assays were conducted for 2 min . Further details are reported in the methods of the main text. The Ki value was calculated by fitting the com petitive inhibition model to the data with the nonlinear least squares method (nls) in R programming language environment (R version 4.3.1) :
Uptake refers to the rate of uptake in OATP1B1-expressing cells, after subtracting the uptake in control cells , Vmax is the maximum rate of transport, K m is the Michaelis constant, S is the […]
Efflux transport assays in HEK293 membrane vesicles […]

The nature of data set [2]: PBPK model input parameters (binding, absorption, distribution, elimination), Simcyp. On the set-up: species or system human.
Description: The volume of distribution
at steady-state (Vss), predicted using the Rodgers and Rowland model (Model 2) within the
oral (PO) data.7–9,11,12,14,24 Only studies with 1000 mg dosing or lower were included in the
model development and verification due to the possible nonlinear renal clearance of
(CLH) as a human liver microsomal clearance from the in vivo CLH calculated by subtracting
the CLR from the total CL. The model for oral dosing was optimized using data from the study
by Putnam et al. (2005).9 The absorption rate constant (ka) was calculated from the reported
mean absorption time9 and the fraction absorbed (fa) was optimized manually. The obtained
Tissue distribution was described using the full-body PBPK model, with the tissue-to-plasma
partition coefficient (Kp) predicted based on the Rodgers and Rowland method integrated
within the simulator (Method 2). The Kp value for adipose was optimized manually (0.04 to
[3] abbreviates: retrograde calculation from CLH (2.65 l/h).

Results on two compounds are retold here after publication PMC12865225 (Clinical and Translational Science, 2026).

For `Cc1onc(-c2c(Cl)cccc2Cl)c1C(=O)N[C@@H]1C(=O)N2[C@@H]1SC(C)(C)[C@@H]2C(=O)O` [Dicloxacillin], in data set [1], the Ki – broadly, the dissociation constant of the complex between target and ligand, obtained from inhibition or displacement – was found to be 3.65 µM.

Regarding `Cc1onc(-c2c(F)cccc2Cl)c1C(=O)N[C@@H]1C(=O)N2[C@@H]1SC(C)(C)[C@@H]2C(=O)O` [Flucloxacillin], the “CLH” value in data set [2] (Total CL – CLR) stood at 2.65 L/h. Moreover, in data set [2] (setting [3]), the “CLu,int,CYP2C9 (µl/min/pmol P450)” value is 0.124 µl/min/pmol P450 and the “CLu,int,CYP3A4 (µl/min/pmol P450)” value is 0.062 µl/min/pmol P450.
